Test results published in ChEMBL document CHEMBL1154700, “3D-QSAR studies on unsaturated 4-azasteroids as human 5alpha-reductase inhibitors: a self organizing molecular field analysis approach” (Eur J Med Chem, 2010).

Organism: Homo sapiens
Experiment: Inhibition of human 5 alpha reductase assessed as -log of ratio of IC50 of drug to the IC50 of reference compound

Row | -log(RatioIC50) | SMILES
1 | -0.653 | CCN(CC)C(=O)[C@H]1CC[C@H]2[C@@H]3CC=C4N(C)C(=O)CC[C@]4(C)[C@H]3CC[C@]12C
2 | -0.785 | CCN(CC)C(=O)[C@H]1CC[C@H]2[C@@H]3CC[C@H]4NC(=O)C=C[C@]4(C)[C@H]3CC[C@]12C
3 | -2.18 | COC(=O)[C@@H](C)[C@H]1CC[C@H]2[C@@H]3CC[C@H]4N(C)C(=O)C=C[C@]4(C)[C@H]3CC[C@]12C
4 | -0.255 | CC(C)CC(=O)[C@H]1CC[C@H]2[C@@H]3CC[C@H]4NC(=O)C=C[C@]4(C)[C@H]3CC[C@]12C
5 | -1.48 | COC(=O)[C@@H](C)[C@H]1CC[C@H]2[C@@H]3CC[C@H]4NC(=O)C=C[C@]4(C)[C@H]3CC[C@]12C
6 | -1.43 | CC(C)N(C(=O)[C@H]1CC[C@H]2[C@@H]3CC=C4N(C)C(=O)C=C[C@]4(C)[C@H]3CC[C@]12C)C(C)C
7 | -1.48 | CC(C)CC(=O)[C@H]1CC[C@H]2[C@@H]3CC[C@H]4N(C)C(=O)C=C[C@]4(C)[C@H]3CC[C@]12C
8 | -0.301 | CCN(CC)C(=O)/C=C/[C@H]1CC[C@H]2[C@@H]3CC[C@H]4N(C)C(=O)CC[C@]4(C)[C@H]3CC[C@]12C
9 | -3.1 | CN1C(=O)C=C[C@]2(C)[C@H]3CC[C@@]4(C)[C@@H](CC[C@@]45CCCO5)[C@@H]3CC[C@@H]12
10 | -1.18 | CCNC(=O)[C@H]1CC[C@H]2[C@@H]3CC[C@H]4NC(=O)C=C[C@]4(C)[C@H]3CC[C@]12C
11 | -0.079 | CC(C)(C)CC(C)(C)NC(=O)[C@H]1CC[C@H]2[C@@H]3CC[C@H]4NC(=O)C=C[C@]4(C)[C@H]3CC[C@]12C
12 | -1 | C[C@]12C=CC(=O)N[C@@H]1CC[C@@H]1[C@@H]2CC[C@]2(C)[C@@H](C(=O)c3ccc[nH]3)CC[C@@H]12
13 | -2 | CCOC(=O)/C=C1\CC[C@H]2[C@@H]3CC=C4N(C)C(=O)CC[C@]4(C)[C@H]3CC[C@]12C
14 | -0.204 | CC(C)N(C(=O)[C@H]1CC[C@H]2[C@@H]3CC[C@H]4NC(=O)C=C[C@]4(C)[C@H]3CC[C@]12C)C(C)C
15 | -2.18 | CCNC(=O)[C@H]1CC[C@H]2[C@@H]3CC[C@H]4N(C)C(=O)C=C[C@]4(C)[C@H]3CC[C@]12C
16 | 0.26 | CC(C)(C)NC(=O)[C@H]1CC[C@H]2[C@@H]3CC[C@H]4NC(=O)C=C[C@]4(C)[C@H]3CC[C@]12C
17 | -0.204 | CC(C)N(C(=O)[C@H]1CC[C@H]2[C@@H]3CC=C4N(C)C(=O)CC[C@]4(C)[C@H]3CC[C@]12C)C(C)C
18 | -0.602 | CC(C)N(C(=O)[C@H]1CC[C@H]2[C@@H]3CC=C4NC(=O)CC[C@]4(C)[C@H]3CC[C@]12C)C(C)C
19 | -0.477 | CN1C(=O)C=C[C@]2(C)[C@H]3CC[C@]4(C)[C@@H](C(=O)NC(C)(C)CC(C)(C)C)CC[C@H]4[C@@H]3CC[C@@H]12
20 | 0 | C[C@]12C=CC(=O)N[C@@H]1CC[C@@H]1[C@@H]2CC[C@]2(C)[C@@H](C(=O)Sc3ccccn3)CC[C@@H]12
21 | -1.56 | COC(=O)[C@H]1CC[C@H]2[C@@H]3CC[C@H]4NC(=O)C=C[C@]4(C)[C@H]3CC[C@]12C
22 | -1.7 | CCC(C)C(=O)[C@H]1CC[C@H]2[C@@H]3CC[C@H]4N(C)C(=O)C=C[C@]4(C)[C@H]3CC[C@]12C (stereo partly specified)
23 | -1.34 | CCN(CC)C(=O)[C@H]1CC[C@H]2[C@@H]3CC[C@H]4N(C)C(=O)C=C[C@]4(C)[C@H]3CC[C@]12C
24 | -0.881 | CCC(C)C(=O)[C@H]1CC[C@H]2[C@@H]3CC[C@H]4NC(=O)C=C[C@]4(C)[C@H]3CC[C@]12C (stereo partly specified)
25 | -0.778 | CN1C(=O)C=C[C@]2(C)[C@H]3CC[C@]4(C)[C@@H](C(=O)NC(C)(C)C)CC[C@H]4[C@@H]3CC[C@@H]12
26 | -1 | CC(C)N(C(=O)[C@H]1CC[C@H]2[C@@H]3CC[C@H]4N(C)C(=O)C=C[C@]4(C)[C@H]3CC[C@]12C)C(C)C
27 | -3 | C[C@]12C=CC(=O)N[C@@H]1CC[C@@H]1[C@@H]2CC[C@@]2(C)[C@H]1CC[C@@]21CCCO1
28 | -1.52 | CN1C(=O)C=C[C@]2(C)[C@H]3CC[C@]4(C)[C@@H](C(=O)c5ccc[nH]5)CC[C@H]4[C@@H]3CC[C@@H]12
29 | -1.92 | C[C@]12C=CC(=O)N[C@@H]1CC[C@@H]1[C@@H]2CC[C@]2(C)[C@@H](C(N)=O)CC[C@@H]12

Row | SMILES | -log(RatioIC50)
30 | CNC(=O)[C@H]1CC[C@H]2[C@@H]3CC=C4N(C)C(=O)CC[C@]4(C)[C@H]3CC[C@]12C | -1.57
31 | C[C@]12C=CC(=O)N[C@@H]1CC[C@@H]1[C@@H]2CC[C@]2(C)[C@@H](O)CC[C@@H]12 | -2
